“Also recorded” adds a separate entry of the source.
Assays:
MMP2 = MMP2 mRNA expression in SCC4 cells; type: cell-based, human; details: relative to control cells
Protocol: Expression of these genes was also assessed in human tongue squamous cell carcinoma SCC4 cells.

NFkB = NFkB mRNA expression in OECM1 cells; type: cell-based, human
Protocol: (§1) NF-kB, MMP-2, ADAM-17, and IL6 are implicated in the degradation of the expression of genes involved in the cell basement membrane and extracellular matrix of oral squamous cell carcinoma. Accordingly, the expression of NFkB, MMP2, ADAM17, and IL6 in OECM1 cells following exposure to 0.1 μg/ml PGDHC and 1 μg/ml PGDHC was determined.
(§2) Sphingosine-1-phosphate (S1P) sphingolipid plays an essential role in the survival, migration, and degradation of the basement membrane and extracellular matrix of oral squamous cell carcinoma (Yura et al., Cancers (Basel). 2020 August; 12(8): 2062). To determine whether PGDHC can inhibit such properties, the combined effects of PGDHC and S1P on OECM1 gene expression was tested in vitro.

OECM1 cells [1] = assay: Transwell (insert) transmigration assay, OECM1; type: cell-based, human; details: 1 μg/ml, compared to sham control
Protocol: A scratch wound healing assay was performed according to known methods to assess the effects of PGDHC on the migration of human oral squamous cell carcinoma cells. […] The scratch wound healing assay was validated with a transwell migration assay.

[2] = system: healthy oral epithelial cells; assay: ASAH1 expression and dihydroceramide accumulation in healthy oral epithelial cells; type: cell-based; details: preliminary findings
Text: Applicant performed in vitro studies to determine the effect of PEDHC and PGDHC on the proliferation of oral cancer cells via downregulation of acid ceramidase, thereby contributing to the accumulation of intracellular ceramides. […] Furthermore, PGDHC diminished metabolites in at least five different cell survival metabolomic pathways in OSCC cells but not in healthy cells. The metabolomic pathways included folate metabolism, arginine and proline metabolism, triacylglycerol biosynthesis de novo, mitochondrial election transport chain, and glycine and serine metabolism. […] In contrast to current approaches for undermining the viability of oral squamous cell carcinoma and treating OSCC, the present disclosure relates in some aspects to methods and compositions for selectively interfering with any of the growth, viability, proliferation, migration, and metastasis of oral squamous cell carcinoma.

IL6 = IL6 mRNA expression in OECM1 cells; type: cell-based, human
Protocol: as §1, §2

E-cadherin = assay: Western blot of E-cadherin in OECM1 cells; type: cell-based, human; details: 24 h of treatment
Protocol: To determine the effect of PGDHC on cell markers involved in metastasis, the protein levels of p-STAT3, EMT markers, E-cadherin, N-cadherin, and Vimentin in OECM1 cells following in vitro exposure to PGDHC were determined by Western blot assay.

ADAM17 = ADAM17 mRNA expression in OECM1 cells; type: cell-based, human; details: in combination with S1P
Protocol: as §1, §2

[3] = system: healthy epithelial OBA9 cells; assay: Untargeted metabolomic pathway analysis (LC/MS) in healthy OBA9 cells; type: cell-based, human; details: 1 μg/ml for 6 h
Text: (§3) Based on this analysis, at least 5 different cell survival metabolomic pathways, underlined in red were diminished in OSCC (OECM1 and SCC9), but not in healthy epithelial OBA9 cells in response to PGDHC. The 5 pathways were folate metabolism, arginine and proline metabolism, glycine and serine metabolism, de novo triacylglycerol biosynthesis, and mitrochondrial electron transport chain.
The Warburg effect is a metabolic phenomenon observed in many cancer cells, where the cells preferentially use glycolysis metabolism to produce energy instead of oxidative phosphorylation. The Warburg effect is a hallmark of rapid cancer cell growth. Therefore, we evaluated whether PGDHC altered Warburg effect in OSCM1 and SCC9 oral squamous cell carcinoma cells (FIG. 17A), but not healthy epithelial OBA9 cells (FIG. 17B), in vitro. Cells were stimulated with PGDHC (1 μg/ml) for 6 h and the untargeted metabolomic analysis was performed using LC/MS mass-spectrometry. Polar and lipid metabolites were analyzed with HILIC/MS and LC/MS, respectively. […]
Based upon the impact of PGDHC on the Warburg effect in OSCC cells, we further analyzed the levels of cancer-survival metabolites adenosine triphosphate (ATP) and glucose in the OECM1, SCC9, and OBA9 cells described in Example 11. […]

OECM1 cells [4] = assay: Untargeted metabolomic pathway analysis (LC/MS) in OECM1 cells; type: cell-based, human; details: 1 μg/ml for 6 h
Text: as §3
The plots in FIGS. 16A and 16B display the enriched pathways identified in the analysis, with their corresponding significance levels represented on the x-axis. The significance threshold (p<0.05) is denoted by the dashed line. […] Additionally, the color of the dots represents the enrichment, which indicates the extent to which the metabolites in the pathway were clustered amongst the compounds with the most positive fold-changes (positive enrichments), the most negative fold-changes (negative enrichments), or uniformly distributed across high and low fold-change compounds (enrichment values near 0.0). […] Polar and lipid metabolites were analyzed with hydrophilic interaction chromatography (HILIC/MS) and liquid chromatography (LC/MS), respectively. Mass spectrometry analysis was completed with a mass range of 67-1500 Da with 1 scan/sec and a mass resolution of 120,000 in both positive and negative ionization mode. The MS/MS mass-spectrometry data were acquired in a data-dependent iterative fashion with a 1.3 m/z isolation window. Based upon this metabolomic analysis, phosphoglycerol dihydroceramide (PGDHC) isolated from Porphyromonas gingivalis inhibits metabolomic pathways essential for cell survival in oral squamous cell carcinoma cells (OSCC).
The Warburg effect is a metabolic phenomenon observed in many cancer cells, where the cells preferentially use glycolysis metabolism to produce energy instead of oxidative phosphorylation. The Warburg effect is a hallmark of rapid cancer cell growth. Therefore, we evaluated whether PGDHC altered Warburg effect in OSCM1 and SCC9 oral squamous cell carcinoma cells (FIG. 17A), but not healthy epithelial OBA9 cells (FIG. 17B), in vitro. Cells were stimulated with PGDHC (1 μg/ml) for 6 h and the untargeted metabolomic analysis was performed using LC/MS mass-spectrometry. Polar and lipid metabolites were analyzed with HILIC/MS and LC/MS, respectively. Mass spectrometry analysis was completed with a mass range of 67-1500 Da with 1 scan/sec and a mass resolution of 120,000 in both positive and negative ionization mode. MS/MS data were acquired in a data-dependent iterative fashion with a 1.3 m/z isolation window.
Based upon the impact of PGDHC on the Warburg effect in OSCC cells, we further analyzed the levels of cancer-survival metabolites adenosine triphosphate (ATP) and glucose in the OECM1, SCC9, and OBA9 cells described in Example 11. As shown in FIG. 18A and FIG. 18B, PGDHC altered the levels of both ATP and glucose in OECM1 and SCC9 oral squamous cell carcinoma cells, but not OBA9. The metabolites levels are presented as the relative abundance based on the data presented in FIG. 16 and FIG. 17 heat maps.

Substance: phosphoglycerol dihydroceramide [PGDHC]
- MMP2 mRNA in SCC4 cells (MMP2): significantly diminished
- expression of NFkB mRNA in OECM1 cells (NFkB; 1 μg/ml): significantly inhibited
- expression of NFkB mRNA in OECM1 cells exposed to S1P (NFkB; in combination with S1P): significantly inhibited
- number of transmigrated OECM1 cells (OECM1 cells [1]): significantly reduced
- inhibition of ASAH1 expression and accumulation of dihydroceramide in healthy oral epithelial cells [2]: not observed
- expression of IL6 mRNA in OECM1 cells (IL6; 1 μg/ml): significantly inhibited
- expression of IL6 mRNA in OECM1 cells exposed to S1P (IL6; in combination with S1P): significantly inhibited
- protein level of E-cadherin in OECM1 cells (E-cadherin): little to no detectable effect
- ADAM17 mRNA levels in OECM1 cells exposed to S1P (ADAM17): a significant effect was not observed
- Warburg effect in healthy OBA9 cells [3]: no effect
- Warburg effect in OECM1 cells (OECM1 cells [4]): altered
- arginine and proline metabolism in OECM1 cells (OECM1 cells [4]): diminished accumulation; also recorded: inhibits
- de novo triacylglycerol biosynthesis in OECM1 cells (OECM1 cells [4]): diminished accumulation; also recorded: inhibits
- folate metabolism in OECM1 cells (OECM1 cells [4]): diminished accumulation; also recorded: inhibits
- glycine and serine metabolism in OECM1 cells (OECM1 cells [4]): diminished accumulation; also recorded: inhibits
- level of ATP in OECM1 cells (relative abundance) (OECM1 cells [4]): altered
- level of glucose in OECM1 cells (relative abundance) (OECM1 cells [4]): altered
- mitochondrial electron transport in OECM1 cells (OECM1 cells [4]): diminished accumulation; also recorded: inhibits

— patent US20250312365A1, “METHODS FOR INHIBITION OF SQUAMOUS CARCINOMA CELLS USING CERAMIDE MODULATORS” (The Trustees of Indiana University, priority 2024, published 2025)
